Source: patent publication US11400083B2, “CXCR4 antagonists with amino acid skeleton, preparation therefor and biomedical use thereof” (Tsinghua University, priority 2017, dated 2022)

How the values were obtained:
[1] = molecular target: T1, CXCR4 (Homo sapiens, UniProt P61073); assay: Inhibition of intracellular calcium mobilization (SupT1 cells, SDF-1α, Fluo-4); format: cell-based; conditions: 50 nM SDF-1α
Protocol: 3. Experimental method: the cell line used in this assay was SupT1. Prior to the experiment, the cells were collected and washed with an experimental buffer (an HBSS buffer containing 20 mM HEPES), and then incubated with a buffer containing 4 μM Fluo-4 and 1 mM probenecid sodium for 30 min at 37° C., after which the residual dye was washed away, and the cells were suspended to a concentration of 2×10^6 cells/ml. Afterwards, 200 μl of the cell suspension was taken and added to a black 96-well plate, and absorption values of the cells at 494 nmEX/516 nmEM were recorded. Subsequently, different concentrations of compound were added and mixed uniformly, and the baseline was recorded. Thereafter, 50 nM of the SDF-1α was added and mixed uniformly. Signals of calcium ions were recorded, and the differences in fluorescence intensity between a group without addition of the compound and groups added with different concentrations of the compound were observed. 4.

[2] = Cytotoxicity assay (CellTiter 96, 72 h); format: cell-based; conditions: human; HEK293 cells, 72 hours incubation
Protocol: 1. Experimental method: the experiment was carried out using HEK293 cell line. The HEK293 cells cultured in DMEM medium (containing 10% fetal bovine serum, 100 IU penicillin and 0.1 mg/ml streptomycin) were trypsinized, counted, and plated in a 96-well plate with each well containing 100 μl suspension and including 3×10^3 cells in total. After culturation in a constant-temperature incubator containing 5% CO2 at 37° C. overnight, different concentrations of the compound were added. After 72 hours of incubation in total, 20 μl CellTiter 96 was added to further incubate for 1 to 4 hours, and then an absorption value at 490 nm was measured on a microplate reader. The changes in cell viability prior to and subsequent to the addition of the compound were observed by comparing the values of the blank control group and the experimental group. 2.

[3] = molecular target: T1, CXCR4; assay: Binding affinity assay on CXCR4 receptor protein (inhibition of 12G5 monoclonal antibody binding, CHO cells stably transfected with CXCR4); parameters: expressed in transfected cells; host or cells: CHO cells, stably transfected (G418 selection); conditions: 40 min; 0.1 μM compound; inhibition of 12G5 antibody binding to CXCR4 on CHO-CXCR4 cells; read-out: Inhibition ratio interval of compounds at 0.1 μM
Protocol: 3. Experimental method: the cell line used for the affinity activity assay of the CXCR4 was a CHO cell line constructed in vitro and stably transfected with CXCR4. The CHO cell line cultured in DMEM medium (containing 10% fetal bovine serum, 100 IU penicillin, 0.1 mg/ml streptomycin and 0.2 mg/ml G418) was trypsinized, washed, counted, and then suspended in an FACS buffer (PBS containing 0.5% BSA and 0.05% NaN3), followed by being plated in a 96-well plate. Each cell contains 100 μl of the reaction system, which includes 5×10^5 cells, 250 ng/ml 12G5 monoclonal antibody and different concentrations of compound for detection. After incubated on ice for 40 min and washed with the FACS buffer, the reaction system was added with the secondary antibody (anti-mouse FITC-labeled IgG) for further incubation on ice for 30 min and then washed twice with the FACS buffer. Absorption values at 485 nmEX/535 nmEM were measured on a microplate reader (PerkinElmer), and fluorescence intensities were recorded. For each compound, a percentage of the compound that inhibits the binding of the 12G5 monoclonal antibody to the receptor CXCR4, i.e. a binding inhibition ratio at 0.1 μM, was calculated. 4. […] The inhibition ratio of the compounds is divided into the following intervals: 75% to 100% for A, 50% to 74% for B, 25% to 49% for C, and 0 to 24% for D.

[4] = molecular target: T1, CXCR4; assay: Inhibition of CXCR4 induced cell migration (SupT1 cells, SDF-1α, transwell); format: cell-based; conditions: 2 nM SDF-1α, concentration-dependent, FIG. 1
Protocol: 1. Experimental method: the assay on the CXCR4 induced cell migration was detected using SupT1 cell line which naturally expresses the CXCR4. SupT1 cells cultured and suspended in RPMI 1640 (containing 10% fetal bovine serum, 100 IU penicillin and 0.1 mg/ml streptomycin) were collected and then washed with RPMI 1640 containing 0.5% BSA, after which the cells are counted and suspended to a concentration of 3.0×10^7 cells/ml, and then uniformly mixed with different concentrations of compound. Then, 75 μl of the obtained mixture was taken and added to a tranwell insert, and incubated at 37° C. for 30 min. […] After incubation at 37° C. for 3 hours, the tranwell insert was removed, and 40 μl of CellTiter 96 (Promega) was added to each cell of the lower culture plate. After 1 to 4 hours of incubation, absorption values at 490 nm were detected. The experimental results of each group were obtained by at least three independent experiments, and the inhibition curve was plotted by the GraphPad software. 2.

T1 sequence (P61073 whole entry): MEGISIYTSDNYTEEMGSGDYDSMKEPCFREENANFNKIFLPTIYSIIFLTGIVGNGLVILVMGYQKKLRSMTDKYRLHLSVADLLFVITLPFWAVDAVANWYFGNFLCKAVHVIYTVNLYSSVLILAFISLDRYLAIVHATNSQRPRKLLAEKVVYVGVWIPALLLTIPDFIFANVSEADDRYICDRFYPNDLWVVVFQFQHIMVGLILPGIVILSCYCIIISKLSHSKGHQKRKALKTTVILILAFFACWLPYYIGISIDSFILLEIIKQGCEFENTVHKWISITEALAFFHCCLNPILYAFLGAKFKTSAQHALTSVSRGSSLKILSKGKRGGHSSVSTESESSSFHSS

SMILES	Inhibition of signal of calcium mobilization ([1]; compound at 1.0 μM, FIG. 3)	IC50 at 72 h [2]	inhibition at 0.1 µM [3]	Inhibition of CXCR4 induced cell migration [4]	Inhibition of signal of calcium mobilization ([1]; compound at 0.2 μM, FIG. 2)
c1cc(CN2CCCNCCNCCCNCC2)ccc1CN1CCCNCCNCCCNCC1 [AMD3100, plerixafor, reference compound]	fails to inhibit				
N=C(N)NCCC[C@H](NCc1ccccn1)C(=O)NCc1ccc(CNCCCNC2CCCCC2)cc1 [Compound 1]		> 50 µM	75 to 100%	significant inhibiting ability	completely inhibit
N=C(N)NCCC[C@H](NC(=O)c1ccc(F)cc1)C(=O)NCc1ccc(CNCCCNC2CCCCC2)cc1 [Compound 2]		> 50 µM	50 to 74%		
N=C(N)NCCC[C@H](NCc1ccccn1)C(=O)NCc1ccccc1 [Compound 3]			0 to 24%		
N=C(N)NCCC[C@H](NCc1ccccn1)C(=O)NCc1ccc(CNC2CCCCC2)cc1 [Compound 4]		> 50 µM	0 to 24%		
N=C(N)NCCC[C@H](N)C(=O)NCc1ccc(CNCCCNC2CCCCC2)cc1 [Compound 5]		> 50 µM	25 to 49%		
N=C(N)NCCC[C@@H](NCc1ccccn1)C(=O)NCc1ccc(CNCCCNC2CCCCC2)cc1 [Compound 6]		> 50 µM	50 to 74%		
N=C(N)NCCC[C@H](NC(=O)C1CCC(F)(F)CC1)C(=O)NCc1ccc(CNCCCNC2CCCCC2)cc1 [Compound 7]		> 50 µM	50 to 74%		
N=C(N)NCCC[C@H](NCc1ccc(F)cc1)C(=O)NCc1ccc(CNCCCNC2CCCCC2)cc1 [Compound 8]		> 50 µM	50 to 74%		
CN(C)c1ccc(CN[C@@H](CCCNC(=N)N)C(=O)NCc2ccc(CNCCCNC3CCCCC3)cc2)cc1 [Compound 9]		> 50 µM	75 to 100%		
N=C(N)NCCC[C@H](NCc1cccc2ccccc12)C(=O)NCc1ccc(CNCCCNC2CCCCC2)cc1 [Compound 10]		> 50 µM	50 to 74%		
N=C(N)NCCC[C@H](NCc1ccc(-c2ccccc2)cc1)C(=O)NCc1ccc(CNCCCNC2CCCCC2)cc1 [Compound 11]		> 50 µM	50 to 74%		
N=C(N)NCCC[C@H](NCc1cc(C(F)(F)F)cc(C(F)(F)F)c1)C(=O)NCc1ccc(CNCCCNC2CCCCC2)cc1 [Compound 12]		> 50 µM	0 to 24%		
N=C(N)NCCC[C@H](NCc1ncc[nH]1)C(=O)NCc1ccc(CNCCCNC2CCCCC2)cc1 [Compound 13]		> 50 µM	50 to 74%		
N=C(N)NCCC[C@H](NC1CCCc2cccnc21)C(=O)NCc1ccc(CNCCCNC2CCCCC2)cc1 (some centres unmarked) [Compound 14]			0 to 24%		
N=C(N)NCCC[C@H](NC1CCCCC1)C(=O)NCc1ccc(CNCCCNC2CCCCC2)cc1 [Compound 15]		> 20 µM	50 to 74%		
N=C(N)NCCC[C@H](NCC1CCCCC1)C(=O)NCc1ccc(CNCCCNC2CCCCC2)cc1 [Compound 16]		> 50 µM	75 to 100%		

SMILES	Inhibition of signal of calcium mobilization ([1]; compound at 1.0 μM, FIG. 3)	IC50 at 72 h [2]	inhibition at 0.1 µM [3]	Inhibition of CXCR4 induced cell migration [4]	Inhibition of signal of calcium mobilization ([1]; compound at 0.2 μM, FIG. 2)
NCCCC[C@H](NCc1ccccn1)C(=O)NCc1ccc(CNCCCNC2CCCCC2)cc1 [Compound 17]		> 50 µM	75 to 100%		
CC(C)NCCCC[C@H](NCc1ccccn1)C(=O)NCc1ccc(CNCCCNC2CCCCC2)cc1 [Compound 18]		> 50 µM	75 to 100%		
O=C(NCc1ccc(CNCCCNC2CCCCC2)cc1)[C@H](CCCCNC1CCCCC1)NCc1ccccn1 [Compound 19]		> 50 µM	75 to 100%		
O=C(NCc1ccc(CNCCCNC2CCCCC2)cc1)[C@H](CCCNC1CCCCC1)NCc1ccccn1 [Compound 20]		> 50 µM	50 to 74%		
O=C(NCc1ccc(CNCCCNC2CCCCC2)cc1)[C@H](Cc1c[nH]cn1)NCc1ccccn1 [Compound 21]		> 50 µM	75 to 100%		
O=C(O)C[C@H](NCc1ccccn1)C(=O)NCc1ccc(CNCCCNC2CCCCC2)cc1 [Compound 22]		> 50 µM	50 to 74%		
C[C@H](NCc1ccccn1)C(=O)NCc1ccc(CNCCCNC2CCCCC2)cc1 [Compound 23]		> 50 µM	75 to 100%		
O=C(NCc1ccc(CNCCCNC2CCCCC2)cc1)[C@H](CO)NCc1ccccn1 [Compound 24]		> 50 µM	75 to 100%		
O=C(NCc1ccc(CNCCCNC2CCCCC2)cc1)[C@H](Cc1ccc2ccccc2c1)NCc1ccccn1 [Compound 25]		> 10 µM	50 to 74%		
O=C(NCc1ccc(CNCCCNC2CCCCC2)cc1)[C@H](Cc1c[nH]c2ccccc12)NCc1ccccn1 [Compound 26]		> 50 µM	75 to 100%		
O=C(NCc1ccc(CNCCCNC2CCCCC2)cc1)[C@H](Cc1ccc(O)cc1)NCc1ccccn1 [Compound 27]		> 50 µM	50 to 74%		
CC(C)C[C@H](NCc1ccccn1)C(=O)NCc1ccc(CNCCCNC2CCCCC2)cc1 [Compound 28]		> 50 µM	25 to 49%		
O=C(NCc1ccc(CNCCCNC2CCCCC2)cc1)[C@@H]1CCCN1Cc1ccccn1 [Compound 29]		> 50 µM	75 to 100%		
O=C(NCc1ccc(CNCCCNC2CCCCC2)cc1)[C@@H]1Cc2ccccc2CN1Cc1ccccn1 [Compound 30]		> 20 µM	75 to 100%		
N=C(N)NCCC[C@H](NC(=O)[C@@H](N)Cc1ccc(O)cc1)C(=O)NCc1ccc(CNCCCNC2CCCCC2)cc1 [Compound 31]		> 50 µM	75 to 100%		
N=C(N)NCCC[C@H](N)C(=O)N[C@@H](Cc1ccc2ccccc2c1)C(=O)NCc1ccc(CNCCCNC2CCCCC2)cc1 [Compound 32]		> 50 µM	75 to 100%		
